Measured values taken from PubChem BioAssay (NCI).
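Assay format: 96-well plates, 48-hour exposure. Definition used: TGI = concentration required for complete inhibition of growth.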

What was measured:
Assay in all cases: NCI-60 cell line screen, 48 h
[1] = test system: RXF 393 renal
[2] = test system: A549 NSCLC
[3] = test system: SF-268 CNS
[4] = test system: NCI-H226 lung
[5] = test system: SNB-75 CNS
[6] = test system: SF-295 CNS
[7] = test system: MDA-MB-435
[8] = test system: MDA-MB-231 breast
[9] = test system: HT29 colon
[10] = test system: RPMI-8226 leukemia
[11] = test system: OVCAR-8 ovarian
[12] = test system: SK-MEL-2 melanoma
[13] = test system: A498 renal
[14] = test system: K-562 leukemia
[15] = test system: 786-0 renal
[16] = test system: SR leukemia
[17] = test system: HCC-2998 colon
[18] = test system: SNB-19 CNS
[19] = test system: TK-10 renal
[20] = test system: NCI/ADR-RES ovarian
[21] = test system: SK-MEL-5 melanoma
[22] = test system: HCT-15 colon
[23] = test system: HS 578T breast
[24] = test system: MOLT-4 leukemia
[25] = test system: HOP-62 NSCLC
[26] = test system: CCRF-CEM leukemia
[27] = test system: DU-145 prostate
[28] = test system: SK-OV-3 ovarian
[29] = test system: EKVX NSCLC
[30] = test system: UO-31 renal
[31] = test system: CAKI-1 renal
[32] = test system: T-47D breast
[33] = test system: MCF7 breast
[34] = test system: NCI-H23 lung
[35] = test system: ACHN renal
[36] = test system: MALME-3M melanoma
[37] = test system: SK-MEL-28 melanoma
[38] = test system: COLO 205 colon
[39] = test system: SN12C renal
[40] = test system: PC-3 prostate
[41] = test system: OVCAR-3 ovarian
[42] = test system: NCI-H522 lung
[43] = test system: OVCAR-5 ovarian
[44] = test system: IGROV1 ovarian
[45] = test system: OVCAR-4 ovarian
[46] = test system: MDA-N
[47] = test system: SW-620 colon
[48] = test system: UACC-257 melanoma
[49] = test system: SF-539 CNS
[50] = test system: HL-60(TB) leukemia
[51] = test system: U251 CNS
[52] = test system: BT-549 breast
[53] = test system: UACC-62 melanoma
[54] = test system: M14 melanoma
[55] = test system: HCT-116 colon
[56] = test system: LOX IMVI melanoma
[57] = test system: NCI-H460 lung
[58] = test system: HOP-92 NSCLC
[59] = test system: KM12 colon

COc1ccc(CSC2=C(C#N)C(=O)NC3(CCCCC3)S2)cc1
TGI [1]: > 73.3 µM
TGI [2]: > 100 µM
TGI [3]: > 87.4 µM
TGI [4]: > 100 µM
TGI [5]: > 100 µM
TGI [6]: > 100 µM
TGI [7]: 38.2 µM
TGI [8]: > 100 µM
TGI [9]: > 100 µM
TGI [10]: > 100 µM
TGI [11]: > 100 µM
TGI [12]: > 100 µM
TGI [13]: > 100 µM
TGI [14]: > 100 µM
TGI [15]: > 100 µM
TGI [16]: > 100 µM
TGI [17]: 62.4 µM
TGI [18]: > 100 µM
TGI [19]: > 100 µM
TGI [20]: > 100 µM
TGI [21]: > 100 µM
TGI [22]: > 100 µM
TGI [23]: > 75.8 µM
TGI [24]: > 100 µM
TGI [25]: > 100 µM
TGI [26]: 24.7 µM
TGI [27]: > 100 µM
TGI [28]: > 100 µM
TGI [29]: > 100 µM
TGI [30]: > 100 µM
TGI [31]: > 100 µM
TGI [32]: 63.2 µM
TGI [33]: > 100 µM
TGI [34]: > 100 µM
TGI [35]: > 100 µM
TGI [36]: > 100 µM
TGI [37]: > 100 µM
TGI [38]: > 100 µM
TGI [39]: > 100 µM
TGI [40]: > 100 µM
TGI [41]: > 82.1 µM
TGI [42]: 97.2 µM
TGI [43]: > 100 µM
TGI [44]: > 100 µM
TGI [45]: > 100 µM
TGI [46]: 57.5 µM
TGI [47]: > 100 µM
TGI [48]: > 100 µM
TGI [49]: > 100 µM
TGI [50]: 19 µM
TGI [51]: > 100 µM
TGI [52]: > 100 µM
TGI [53]: > 100 µM
TGI [54]: > 100 µM
TGI [55]: > 100 µM
TGI [56]: > 64.8 µM
TGI [57]: > 100 µM
TGI [58]: > 100 µM

CC(C)OP(=O)(OC(C)C)C(C(C)C)N(C)C(N)=NC#N (stereo not given)
TGI [1]: > 100 µM
TGI [2]: > 100 µM
TGI [3]: > 100 µM
TGI [4]: > 100 µM
TGI [5]: > 100 µM
TGI [6]: > 100 µM
TGI [7]: > 100 µM
TGI [8]: > 100 µM
TGI [9]: > 100 µM
TGI [59]: > 100 µM
TGI [10]: > 100 µM
TGI [11]: > 100 µM
TGI [12]: > 100 µM
TGI [13]: > 100 µM
TGI [14]: > 100 µM
TGI [16]: > 100 µM
TGI [17]: > 100 µM
TGI [18]: > 100 µM
TGI [19]: > 100 µM
TGI [20]: > 100 µM
TGI [21]: > 100 µM
TGI [22]: > 100 µM
TGI [23]: > 100 µM
TGI [24]: > 100 µM
TGI [25]: > 100 µM
TGI [26]: > 100 µM
TGI [27]: > 100 µM
TGI [28]: > 100 µM
TGI [29]: > 100 µM
TGI [30]: > 100 µM
TGI [31]: > 100 µM
TGI [32]: > 100 µM
TGI [33]: > 100 µM
TGI [34]: > 100 µM
TGI [35]: > 100 µM
TGI [36]: > 100 µM
TGI [37]: > 100 µM
TGI [38]: > 100 µM
TGI [39]: > 100 µM
TGI [40]: > 100 µM
TGI [41]: > 100 µM
TGI [42]: > 100 µM
TGI [44]: > 100 µM
TGI [45]: > 100 µM
TGI [46]: > 100 µM
TGI [47]: > 100 µM
TGI [48]: > 100 µM
TGI [49]: > 100 µM
TGI [50]: > 100 µM
TGI [51]: > 100 µM
TGI [52]: > 100 µM
TGI [53]: > 100 µM
TGI [54]: > 100 µM
TGI [55]: > 100 µM
TGI [56]: > 100 µM
TGI [57]: > 100 µM
TGI [58]: > 100 µM
